Data taken from ChEMBL document CHEMBL4732090, “Preparation of new 1,3-dibenzyl tetrahydropyridinylidene ammonium salts and their antimicrobial and anticellular activities” (Eur J Med Chem, 2021).

Columns and labels:
Candida albicans = experiment: Antifungal activity against Candida albicans ATCC 90028 assessed as diameter of inhibition zone at 10 mg/ml by disk diffusion assay; type: functional; conditions: read-out: DIZ
[1] = Selectivity index, ratio of IC50 for rat L6 cells to IC50 for Trypanosoma brucei rhodesiense STIB900; type: toxicity; conditions: read-out: Ratio IC50
Escherichia coli = experiment: Antibacterial activity against Escherichia coli ATCC 25922 assessed as diameter of inhibition zone at 10 mg/ml by disk diffusion assay; type: functional; conditions: read-out: DIZ
Staphylococcus aureus = experiment: Antibacterial activity against Staphylococcus aureus ATCC 29213 assessed as diameter of inhibition zone at 10 mg/ml by disk diffusion assay; type: functional; conditions: read-out: DIZ
L6 = experiment: Cytotoxicity against rat L6 cells after 70 hrs by Alamar blue assay; type: cell-based; conditions: L6, 70 h
[2] = Selectivity index, ratio of IC50 for rat L6 cells to IC50 for Plasmodium falciparum NF54; type: toxicity; conditions: read-out: Ratio IC50
[3] = test system: Trypanosoma brucei rhodesiense; experiment: Trypanocidal activity against Trypanosoma brucei rhodesiense STIB900 incubated for 70 hrs by Alamar blue assay; type: functional, organism-based; conditions: STIB900, 70 h
Pseudomonas aeruginosa = experiment: Antibacterial activity against Pseudomonas aeruginosa ATCC 27853 assessed as diameter of inhibition zone at 10 mg/ml by disk diffusion assay; type: functional; conditions: read-out: DIZ
Plasmodium falciparum [4] = experiment: Antiplasmodial activity against Plasmodium falciparum NF54 erythrocytic stages assessed as reduction in [3H]hypoxanthine incorporation measured after 48 hrs by liquid scintillation counting method; type: functional, organism-based
[5] = test system: Staphylococcus epidermidis; experiment: Antibacterial activity against Staphylococcus epidermis ATCC 12228 assessed as diameter of inhibition zone at 10 mg/ml by disk diffusion assay; type: functional; conditions: read-out: DIZ
HCT-116 = experiment: Cytotoxicity against human HCT-116 cells assessed as inhibition of cell growth at 50 uM after 72 hrs by XTT assay relative to control; type: functional
U-251 = experiment: Cytotoxicity against human U-251 cells assessed as inhibition of cell growth at 50 uM after 72 hrs by XTT assay relative to control; type: functional
Plasmodium falciparum [6] = experiment: Antiplasmodial activity against chloroquine and pyrimethamine resistant Plasmodium falciparum K1 strain; type: functional, organism-based
[7] = Selectivity index, ratio of IC50 for rat L6 cells to IC50 for chloroquine and pyrimethamine resistant Plasmodium falciparum K1; type: toxicity; conditions: read-out: Ratio IC50

| IC50 (Plasmodium falciparum [4]) | SMILES | zone of inhibition at 10000 µg/mL (Candida albicans) | selectivity ratio [1] | zone of inhibition at 10000 µg/mL (Escherichia coli) | zone of inhibition at 10000 µg/mL (Staphylococcus aureus) | IC50 (L6; read-out: IC50) | selectivity ratio [2] | IC50 [3] | zone of inhibition at 10000 µg/mL (Pseudomonas aeruginosa) | zone of inhibition at 10000 µg/mL [5] | inhibition at 50 µM (HCT-116) | inhibition at 50 µM (U-251) | IC50 (Plasmodium falciparum [6]) | selectivity ratio [7] | IC50 (L6) |
| --- | --- | --- | --- | --- | --- | --- | --- | --- | --- | --- | --- | --- | --- | --- | --- |
| 17 nM | CC1(C)C(Cc2ccc(Cl)cc2)C(=[N+]2CCCC2)C=CN1Cc1ccccc1 (racemic) | 11 mm | 179 | 8 mm | 24 mm | 89.5 µM | 5260 | 500 nM | 0 mm | 21 mm | – | – | – | – | – |
| 38 nM | CC1(C)C(Cc2c(Cl)cccc2Cl)C(=[N+]2CCCC2)C=CN1Cc1c(Cl)cccc1Cl (racemic) | 25 mm | 37.9 | 14 mm | 23 mm | 0.91 µM | 23.9 | 24 nM | 6 mm | 34 mm | 100% | 100% | – | – | – |
| 89 nM | CC1(C)C(Cc2ccccc2)C(=[N+]2CCCC2)C=CN1Cc1ccc([N+](=O)[O-])cc1 (racemic) | 0 mm | 200 | 7 mm | 12 mm | 206 µM | 2320 | 1030 nM | 0 mm | 14 mm | – | – | – | – | – |
| 31 nM | CC1(C)C(Cc2c(Cl)cccc2Cl)C(=[N+]2CCCC2)C=CN1Cc1ccccc1 (racemic) | 10 mm | 238 | 10 mm | 23 mm | 15 µM | 483 | 63 nM | 7 mm | 26 mm | – | – | – | – | – |
| – | CC1(C)S[C@@H]2[C@H](NC(=O)[C@H](N)c3ccccc3)C(=O)N2[C@H]1C(=O)O [AMPICILLIN] | 0 mm | – | 15 mm | – | – | – | – | 0 mm | 45 mm | – | – | – | – | – |
| – | C[C@@H]1CC[C@H]2[C@@H](C)C(=O)O[C@@H]3O[C@@]4(C)CC[C@@H]1[C@]32OO4 [ARTEMISININ] | – | – | – | – | – | – | – | – | – | – | – | 3.4 nM | 132000 | – |
| – | CCN(CC)CCCC(C)Nc1ccnc2cc(Cl)ccc12 (stereo unspecified) [CHLOROQUINE] | – | – | – | – | 117 µM | – | – | – | – | – | – | – | – | – |
| – | O=C(O)c1cn(C2CC2)c2cc(N3CCNCC3)c(F)cc2c1=O [CIPROFLOXACIN] | 0 mm | – | – | 14 mm | – | – | – | 0 mm | – | – | – | – | – | – |
| – | Nc1nc(N)nc(Nc2ccc([As]3SCC(CO)S3)cc2)n1 (stereo unspecified) [MELARSOPROL] | – | 2000 | – | – | – | – | – | – | – | – | – | – | – | – |
| – | COc1cc([C@@H]2c3cc4c(cc3[C@H](O)[C@H]3COC(=O)[C@H]23)OCO4)cc(OC)c1OC [PODOFILOX] | – | – | – | – | – | – | – | – | – | – | – | – | – | 0.012 µM |
| – | COc1cc(Cc2cnc(N)nc2N)cc(OC)c1OC [TRIMETHOPRIM] | 0 mm | – | – | 22 mm | – | – | – | 0 mm | – | – | – | – | – | – |

| SMILES | IC50 (Plasmodium falciparum [4]) | zone of inhibition at 10000 µg/mL (Candida albicans) | selectivity ratio [1] | zone of inhibition at 10000 µg/mL (Escherichia coli) | zone of inhibition at 10000 µg/mL (Staphylococcus aureus) | IC50 (L6; read-out: IC50) | selectivity ratio [2] | IC50 [3] | zone of inhibition at 10000 µg/mL (Pseudomonas aeruginosa) | zone of inhibition at 10000 µg/mL [5] | inhibition at 50 µM (HCT-116) | inhibition at 50 µM (U-251) | IC50 (Plasmodium falciparum [6]) | selectivity ratio [7] | IC50 (L6) |
| --- | --- | --- | --- | --- | --- | --- | --- | --- | --- | --- | --- | --- | --- | --- | --- |
| CC1(C)C(Cc2ccc(Cl)cc2)C(=[N+]2CCCC2)C=CN1Cc1ccc(Cl)cc1 (racemic) | 1.4 nM | 20 mm | 73.9 | 15 mm | 21 mm | 12.6 µM | 8980 | 170 nM | 7 mm | 34 mm | 100% | 100% | 1.6 nM | 7860 | – |
